The values below come from patent US20040229880A1, “4-[(2,4-dichloro-5-methoxyphenyl)amino]-6-alkoxy-3-quinolinecarbonitriles for the treatment of ischemic injury” (Wyeth, priority 2003, published 2004).

Broadly, the IC50 is the concentration that inhibits the measured activity by half. A word on the melting point: it is the temperature of the solid-liquid transition.

Each structure is given as a SMILES string.

In data set [1] the test system is permanent focal ischemia. Description: Permanent focal ischemia with extensive infarction to sensorimotor cortex, 21 day neurological assessment. To be noted: IV bolus 10 mg/kg at 90 min, 4 hours later, and 24 and 28 hours later (total 40 mg/kg); Day 21. It is filed as in vivo, Wistar rats. Here is the method:
Wistar rats (n=5 per group) were subjected to focal ischemic stroke model that results in a extensive ischemia to the sensorimotor cortex substantially as described by Chen et al., (Stroke 17:738, 1986). […] Results were evaluated by Generalized Regression Model to determine statistical significance of the differences between slopes and to compare final neurological outcome after 21 days. […] Thus, compounds of the present invention provide long-term improvement of neurological deficits.

Data set [2] relates to transient focal ischemia. Kind of data set: IV administration in rat model of transient focal ischemia (90 min MCA occlusion, 48 h reperfusion). It is filed as in vivo, Wistar rats. Here is the method:
Following reperfusion, the animals were evaluated over a 48 hour period for neurological function deficit and weight loss/gain. Brain tissue infarction volume by were reduced by 22%, 53% and 42%, respectively. […] Thus, compounds of the present invention provide neuroprotection following focal ischemia.

In data set [3] the test system is vascular permeability in the ischemic striatum. Description: Post ischemic vascular permeability (Evans Blue extravasation). The class given is in vivo, Wistar rats. To be noted: single IV bolus 30 min after onset of ischemia at 3, 10 and 30 mg/kg (dose of the value not stated), 24 hours reperfusion. Here is the method: Post Ischemic Vascular Permeability Wistar rats were subjected to a 90 min occlusion of the middle cerebral artery (MCA) using an intraluminal suture approach as described by Longa et al., Stroke 1989, 20:84 followed by reperfusion for 24 hours. […] Two hours before sacrifice animals received an IV injection of 2% Evans Blue in saline. Brains were perfused with saline and the striatum dissected. Evans Blue was extracted and quantified by spectrofluorometer based on external standards. Vascular permeability in the ischemic striatum was reduced as evidenced by a 60% decrease of Evans Blue extravasation. Thus, compounds of the present invention reduce vascular permeability associated with ischemic injury.

In data set [4] the test system is transient focal ischemia. Kind of data set: Therapeutic window in transient focal ischemia model. The class given is in vivo, Wistar rats. Here is the method:
Therapeutic Window In this model of transient focal ischemia three studies were conducted to examine therapeutic window. Wistar rats were subjected to 90 minute occlusion of the MCA followed by reperfusion as described above. […] Volume of infarcted tissue was measured by histological staining.

Data set [5] deals with Rat2 fibroblasts stably transformed with v-Src/Hu c-Src fusion gene. Description: Anchorage Independent Src-transformed Fibroblast Proliferation Assay. It is filed as cell-based. To be noted: Rattus norvegicus, src dependent suspension growth, MTS, read-out: Src cells IC50.
Data set [6] concerns transient focal ischemia. Description: IP administration in rat model of transient focal ischemia (90 min MCA occlusion, 48 h reperfusion). The class given is in vivo, Wistar rats. The note with it: for recovery from stroke-induced neurological deficits: 85 min after onset of ischemia, evaluated over 48 hours. Here is the method:
Wistar rats were subjected to a 90 min occlusion of the middle cerebral artery (MCA) using an intraluminal suture approach as described by Longa et al., Stroke 1989, 20:84 followed by reperfusion for 48 hours. […] Following reperfusion, the animals were evaluated over a 48 hour period for neurological function deficit and weight loss/gain. Infarct size was measured following sacrifice at 48 hours post MCA occlusion.

The test system of data set [7] is permanent focal ischemia. Kind of data set: Permanent focal ischemia, model of extreme severity (intraluminal suture occlusion of internal carotid artery). It is filed as in vivo, rat. To be noted: relatively short outcome (28 hours). Here is the method:
Permanent Focal Ischemia Example 1 was also evaluated in two rat models of permanent focal ischemia.

Data set [8] concerns the target T1, Src (Homo sapiens, UniProt P12931).
T1 construct: purchased Upstate Biotechnologies, Lake Placid, N.Y
Description: Src Kinase Assay (ELISA or Delfia format, cdc2 substrate peptide). The class given is biochemical. The note with it: read-out: Src enzyme IC50. (In an ELISA, binding on a coated surface is turned into a signal by an enzyme label.)

T1 sequence (P12931 whole entry): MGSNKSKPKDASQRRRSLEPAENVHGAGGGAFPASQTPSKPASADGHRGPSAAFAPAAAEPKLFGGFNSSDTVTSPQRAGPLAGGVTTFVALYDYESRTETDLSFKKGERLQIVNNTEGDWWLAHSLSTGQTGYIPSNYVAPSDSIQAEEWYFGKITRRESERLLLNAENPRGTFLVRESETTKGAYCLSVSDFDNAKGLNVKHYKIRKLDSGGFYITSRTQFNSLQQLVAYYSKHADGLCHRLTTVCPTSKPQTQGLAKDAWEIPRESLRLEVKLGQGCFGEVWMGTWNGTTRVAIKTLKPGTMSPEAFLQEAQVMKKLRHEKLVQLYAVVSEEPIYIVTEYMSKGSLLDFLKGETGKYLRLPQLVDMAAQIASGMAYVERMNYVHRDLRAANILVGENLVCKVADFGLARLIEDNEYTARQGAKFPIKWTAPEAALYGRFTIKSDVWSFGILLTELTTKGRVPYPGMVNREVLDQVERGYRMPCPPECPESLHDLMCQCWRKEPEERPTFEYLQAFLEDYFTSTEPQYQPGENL

Regarding `COc1cc(Nc2c(C#N)cnc3cc(OCCCN4CCN(C)CC4)c(OC)cc23)c(Cl)cc1Cl` [Example 1, 4-[(2,4-Dichloro-5-methoxyphenyl)amino]-6-methoxy-7-[3-(4-methyl-1-piperazinyl)propoxy]-3-quinolinecarbonitrile], the “Behavioral Score (sensorimotor deficits) as compared to a control group” value in data set [1] is “statistically significant improvement”. For the same compound, the “Mean Motor Deficit Score at 24 hrs” value in data set [2] (3 mg/kg iv) turned out to be 3.83 ± 0.3; in data set [2] (10 mg/kg iv), 4.08 ± 0.08; in [2] (30 mg/kg iv), 4.08 ± 0.23. Further, the “Mean Motor Deficit Score at 48 hrs” value in data set [2] (3 mg/kg iv) was 3.25 ± 0.37; in [2] (10 mg/kg iv) it was 3.67 ± 0.22; in data set [2] (30 mg/kg iv) it was 3.67 ± 0.28. The “Brain tissue infarction volume reduced by” value is recorded as 22% in data set [2] (3 mg/kg iv, 30 min after MCA occlusion); 53% in data set [2] (10 mg/kg iv, 30 min after MCA occlusion); 42% in data set [2] (30 mg/kg iv, 30 min after MCA occlusion). The stroke-induced neurological deficits result in data set [2] (all three doses (3, 10 and 30 mg/kg iv)) is given as “significantly reduced”. Moreover, the Post-stroke weight loss result in data set [2] (iv, 30 min after MCA occlusion) is “significantly reduced”. Further, the “decrease of Evans Blue extravasation in the ischemic striatum” value in data set [3] is reported as 60%. Besides, the “Brain tissue infarction (as a % of vehicle treated)” value in data set [4] (single 10 mg/kg dose administered between 30 min and 4 hours after the ischemic injury) is “statistically reduced”. In data set [4] (single 10 mg/kg dose administered up to 5 hours post-stroke), the “protection from neurological deficits (as a percent of vehicle treated)” value is “Statistically significant protection”. Also, the “protection from ischemia-induced weight loss (as a % of vehicle treated)” value in data set [4] (single 10 mg/kg dose up to 5 hours post stroke) was “statistically significant protection”. The IC50 in data set [5] was determined as 100 nM. Also, the “recovery from stroke-induced neurological deficits” value in data set [6] (5 mg/kg ip) and in [6] (45 mg/kg ip) was “significantly improved” each time. The “volume of infarcted brain tissue, statistical significance of reduction” value in data set [6] (45 mg/kg ip, 48 hours post MCA occlusion) is “statistical significance was achieved”. Also, the body weight recovery result in data set [6] (ip, over 48 hours) is on record as “Improvement in body weight recovery was observed”. For the same compound, the “volume of infarcted brain tissue” value in data set [6] (most doses (1.5, 5, 15, or 45 mg/kg ip), 48 hours post MCA occlusion) is “Reductions in the volume of infarcted brain tissue were observed”. In addition, the “effect in permanent focal ischemia model of extreme severity” value in data set [7] is recorded as “little or no effect”.

For the compound `CCN1CCN(CCCOc2cc3ncc(C#N)c(Nc4cc(OC)c(Cl)cc4Cl)c3cc2OC)CC1` [Example 2, 4-[(2,4-Dichloro-5-methoxyphenyl)amino]-7-[3-(4-ethyl-1-piperazinyl)propoxy]-6-methoxy-3-quinolinecarbonitrile], in data set [5], the IC50 worked out at 130 nM.

`COc1cc(Nc2c(C#N)cnc3cc(OCCN4CCN(C)CC4)c(OC)cc23)c(Cl)cc1Cl` [Example 3, 4-[(2,4-Dichloro-5-methoxyphenyl)amino]-6-methoxy-7-[2-(4-methyl-1-piperazinyl)ethoxy]-3-quinolinecarbonitrile] gave a melting point of 165 to 167 °C. In data set [8], the IC50 was 4 nM. Moreover, the concentration for half-maximal inhibition (IC50) in [5] is 380 nM.

`CCN1CCN(CCOc2cc3ncc(C#N)c(Nc4cc(OC)c(Cl)cc4Cl)c3cc2OC)CC1` [Example 4, 4-[(2,4-Dichloro-5-methoxyphenyl)amino]-7-[2-(4-ethyl-1-piperazinyl)ethoxy]-6-methoxy-3-quinolinecarbonitrile]: the melting point lay within 101 to 105 °C. Further, in data set [8], the 50% inhibitory concentration (IC50) was found to be 3.6 nM. For the same compound, the IC50 in data set [5] was 600 nM.

`CCN1CCC(COc2cc3ncc(C#N)c(Nc4cc(OC)c(Cl)cc4Cl)c3cc2OC)CC1` [Example 8, 4-[(2,4-Dichloro-5-methoxyphenyl)amino]-7-[(1-ethylpiperidin-4-yl)methoxy]-6-methoxyquinoline-3-carbonitrile] gave a melting point of 192 to 195 °C. Moreover, in data set [8], the IC50 was found to be 2.1 nM. Further, the IC50 in data set [5] came out at 170 nM.

Take `CCOc1cc2c(Nc3cc(OC)c(Cl)cc3Cl)c(C#N)cnc2cc1OCCCN1CCN(C)CC1` [Example 9, 4-[(2,4-Dichloro-5-methoxyphenyl)amino]-6-ethoxy-7-[3-(4-methylpiperazin-1-yl)propoxy]quinoline-3-carbonitrile]: the melting point was 137 to 138 °C. For the same compound, in data set [5], the IC50 came out at 86 nM.

The compound `CCOc1cc2c(Nc3cc(OC)c(Cl)cc3Cl)c(C#N)cnc2cc1OCC1CCN(C)CC1` [Example 10, 4-[(2,4-Dichloro-5-methoxyphenyl)amino]-6-ethoxy-7-[(1-methylpiperidin-4-yl)methoxy]quinoline-3-carbonitrile] returned a melting point of 182 to 186 °C. For the same compound, in data set [8], the IC50 came out at 2.1 nM. The half-inhibitory concentration (IC50) in [5] came out at 176 nM.

`CCOc1cc2c(Nc3cc(OC)c(Cl)cc3Cl)c(C#N)cnc2cc1OCCCN1CCN(CC)CC1` [Example 11, 4-[(2,4-Dichloro-5-methoxyphenyl)amino]-6-ethoxy-7-[3-(4-ethylpiperazin-1-yl)propoxy]quinoline-3-carbonitrile] displayed a melting point of 127 to 130 °C. Also, in data set [8], the half-inhibitory concentration (IC50) was found to be 0.85 nM. Moreover, the half-inhibitory concentration (IC50) in data set [5] is 160 nM.

In turn, `CCOc1cc2c(Nc3cc(OC)c(Cl)cc3Cl)c(C#N)cnc2cc1OCCCC1CCN(C)CC1` [Example 12, 4-[(2,4-Dichloro-5-methoxyphenyl)amino]-6-ethoxy-7-[3-(1-methylpiperidin-4-yl)propoxy]quinoline-3-carbonitrile] registered a melting point of 148 to 151 °C. For the same compound, the IC50 in data set [8] is 1.4 nM. Besides, in data set [5], the IC50 came out at 96 nM.

Turning to `CCOc1cc2c(Nc3cc(OC)c(Cl)cc3Cl)c(C#N)cnc2cc1OCCN1CCN(C)CC1` [Example 13, 4-[(2,4-Dichloro-5-methoxyphenyl)amino]-6-ethoxy-7-[2-(4-methyl-1-piperazinyl)ethoxy]quinoline-3-carbonitrile], the melting point lay in the range of 141 to 143 °C. For the same compound, the IC50 in data set [8] came to 1.5 nM. The half-inhibitory concentration (IC50) in data set [5] was determined as 146 nM.

Turning to `CCOc1cc2c(Nc3cc(OC)c(Cl)cc3Cl)c(C#N)cnc2cc1OCCC1CCN(C)CC1` [Example 14, 4-[(2,4-Dichloro-5-methoxyphenyl)amino]-6-ethoxy-7-[2-(1-methylpiperidin-4-yl)ethoxy]quinoline-3-carbonitrile], the melting point lay in the range of 174 to 176 °C. In addition, the IC50 in data set [8] was determined as 1.9 nM. The IC50 in data set [5] stood at 267 nM.

In the case of `CCCN1CCN(CCCOc2cc3ncc(C#N)c(Nc4cc(OC)c(Cl)cc4Cl)c3cc2OC)CC1` [Example 15, 4-[(2,4-Dichloro-5-methoxyphenyl)amino]-6-methoxy-7-[3-(4-propyl-1-piperazinyl)propoxy]-3-quinolinecarbonitrile], the IC50 in [5] worked out at 160 nM.
